Data reported in paper PMC3445516 (PLoS ONE, 2012).
Where two headings read alike, the source gives them in different places.

Tests used:
Experiment in all cases: Ambit kinase profiling, competition binding
[1] = target: T1, KIT(V559D) (Homo sapiens, UniProt P10721, V559D)
T1 construct: purchased Ambit Biosciences (KINOMEscan)
Procedure: (§1) Also included in the kinase profile are four isoforms of PKC (δ, ε, η, θ) and eight isoforms of CAMKs (CAMKIα, δ, γ; CAMKIIα, β, δ, γ; CAMK4).
(§2) The global kinase profiling experiment was performed by Ambit Biosciences.

[2] = target: T2, EGFR(L861Q) (Homo sapiens, UniProt P00533, L861Q); conditions: for % Competition: 10 µM
T2 construct: purchased Ambit Biosciences (KINOMEscan)
Procedure: as §1, §2

[3] = target: T3, HPK1 (Homo sapiens, UniProt Q92918)
T3 construct: purchased Ambit Biosciences (KINOMEscan)
T3 sequence (Q92918 whole entry): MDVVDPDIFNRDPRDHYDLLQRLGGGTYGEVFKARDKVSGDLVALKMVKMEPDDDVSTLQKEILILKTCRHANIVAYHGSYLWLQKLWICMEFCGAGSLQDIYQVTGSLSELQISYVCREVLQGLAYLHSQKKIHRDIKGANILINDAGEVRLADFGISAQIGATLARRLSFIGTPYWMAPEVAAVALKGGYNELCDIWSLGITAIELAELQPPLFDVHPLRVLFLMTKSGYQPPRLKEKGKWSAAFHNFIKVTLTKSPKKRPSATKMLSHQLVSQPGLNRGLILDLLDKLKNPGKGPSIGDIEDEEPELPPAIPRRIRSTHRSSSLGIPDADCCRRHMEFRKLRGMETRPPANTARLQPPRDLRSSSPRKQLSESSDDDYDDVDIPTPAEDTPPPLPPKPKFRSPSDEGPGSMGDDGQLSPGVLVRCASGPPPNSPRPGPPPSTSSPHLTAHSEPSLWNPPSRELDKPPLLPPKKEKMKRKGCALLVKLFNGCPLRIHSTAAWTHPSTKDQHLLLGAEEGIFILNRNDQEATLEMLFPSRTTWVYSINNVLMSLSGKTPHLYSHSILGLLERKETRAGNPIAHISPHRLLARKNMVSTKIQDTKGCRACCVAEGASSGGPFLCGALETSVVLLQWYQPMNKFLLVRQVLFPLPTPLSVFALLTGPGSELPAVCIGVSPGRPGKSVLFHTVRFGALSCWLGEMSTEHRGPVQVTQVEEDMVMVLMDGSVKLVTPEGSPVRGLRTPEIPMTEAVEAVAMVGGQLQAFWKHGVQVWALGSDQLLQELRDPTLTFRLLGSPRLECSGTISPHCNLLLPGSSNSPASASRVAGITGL
Procedure: as §1, §2

[4] = target: T4, CAMKIIγ (Homo sapiens, UniProt Q13555); conditions: for competition: CAMKIIγ, 10 µM
T4 construct: purchased Ambit Biosciences (KINOMEscan)
T4 sequence (Q13555 whole entry): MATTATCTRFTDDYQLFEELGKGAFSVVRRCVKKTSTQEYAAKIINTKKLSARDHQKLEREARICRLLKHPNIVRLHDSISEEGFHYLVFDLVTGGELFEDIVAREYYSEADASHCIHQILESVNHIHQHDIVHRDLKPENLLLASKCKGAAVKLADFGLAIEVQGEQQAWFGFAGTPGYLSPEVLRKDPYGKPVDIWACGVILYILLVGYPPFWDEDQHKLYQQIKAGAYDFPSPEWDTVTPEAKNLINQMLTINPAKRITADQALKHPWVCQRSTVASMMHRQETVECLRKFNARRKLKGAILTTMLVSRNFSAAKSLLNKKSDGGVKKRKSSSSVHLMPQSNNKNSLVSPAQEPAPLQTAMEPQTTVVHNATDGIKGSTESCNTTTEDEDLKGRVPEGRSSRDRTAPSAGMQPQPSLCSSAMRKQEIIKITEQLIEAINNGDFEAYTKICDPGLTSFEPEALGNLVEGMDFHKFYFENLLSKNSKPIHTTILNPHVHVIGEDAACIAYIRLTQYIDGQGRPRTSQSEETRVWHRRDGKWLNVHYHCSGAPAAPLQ
Procedure: as §1, §2

[5] = target: T5, JNK2 (Homo sapiens, UniProt P45984); conditions: for % Competition: 10 µM
T5 construct: purchased Ambit Biosciences (KINOMEscan)
T5 sequence (P45984 whole entry): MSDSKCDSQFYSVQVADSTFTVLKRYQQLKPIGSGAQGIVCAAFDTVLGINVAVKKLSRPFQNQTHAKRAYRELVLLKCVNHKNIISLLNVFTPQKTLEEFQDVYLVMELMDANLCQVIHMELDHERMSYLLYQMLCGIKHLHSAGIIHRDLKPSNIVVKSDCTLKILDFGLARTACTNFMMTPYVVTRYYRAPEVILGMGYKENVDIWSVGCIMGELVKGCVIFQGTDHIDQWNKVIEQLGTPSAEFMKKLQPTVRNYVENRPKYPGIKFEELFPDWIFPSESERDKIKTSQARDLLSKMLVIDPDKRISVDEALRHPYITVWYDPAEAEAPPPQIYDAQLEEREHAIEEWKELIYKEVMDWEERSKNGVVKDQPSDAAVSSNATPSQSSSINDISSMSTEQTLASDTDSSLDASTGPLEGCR
Procedure: as §1, §2

[6] = target: T6, RAF1 (Homo sapiens, UniProt P04049)
T6 construct: purchased Ambit Biosciences (KINOMEscan)
T6 sequence (P04049 whole entry): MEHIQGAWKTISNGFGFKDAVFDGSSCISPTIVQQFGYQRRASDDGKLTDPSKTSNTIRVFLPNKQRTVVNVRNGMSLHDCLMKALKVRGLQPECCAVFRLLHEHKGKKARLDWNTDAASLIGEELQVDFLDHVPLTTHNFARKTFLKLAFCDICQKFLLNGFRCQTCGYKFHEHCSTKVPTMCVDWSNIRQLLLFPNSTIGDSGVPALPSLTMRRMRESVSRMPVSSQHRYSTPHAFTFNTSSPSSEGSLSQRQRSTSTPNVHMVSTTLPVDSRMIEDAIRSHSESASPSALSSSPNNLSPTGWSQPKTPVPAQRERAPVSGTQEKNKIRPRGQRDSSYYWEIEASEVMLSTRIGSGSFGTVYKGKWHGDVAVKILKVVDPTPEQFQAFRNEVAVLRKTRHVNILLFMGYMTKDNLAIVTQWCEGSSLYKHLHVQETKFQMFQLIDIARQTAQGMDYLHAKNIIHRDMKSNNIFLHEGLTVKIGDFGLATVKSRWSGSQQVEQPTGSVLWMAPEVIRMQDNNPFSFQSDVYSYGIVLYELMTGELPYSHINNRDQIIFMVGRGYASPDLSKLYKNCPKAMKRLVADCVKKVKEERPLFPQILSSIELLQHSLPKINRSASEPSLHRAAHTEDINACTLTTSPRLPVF
Procedure: as §1, §2

[7] = target: T7, ACVR1B (Homo sapiens, UniProt P36896)
T7 construct: purchased Ambit Biosciences (KINOMEscan)
T7 sequence (P36896 24-505): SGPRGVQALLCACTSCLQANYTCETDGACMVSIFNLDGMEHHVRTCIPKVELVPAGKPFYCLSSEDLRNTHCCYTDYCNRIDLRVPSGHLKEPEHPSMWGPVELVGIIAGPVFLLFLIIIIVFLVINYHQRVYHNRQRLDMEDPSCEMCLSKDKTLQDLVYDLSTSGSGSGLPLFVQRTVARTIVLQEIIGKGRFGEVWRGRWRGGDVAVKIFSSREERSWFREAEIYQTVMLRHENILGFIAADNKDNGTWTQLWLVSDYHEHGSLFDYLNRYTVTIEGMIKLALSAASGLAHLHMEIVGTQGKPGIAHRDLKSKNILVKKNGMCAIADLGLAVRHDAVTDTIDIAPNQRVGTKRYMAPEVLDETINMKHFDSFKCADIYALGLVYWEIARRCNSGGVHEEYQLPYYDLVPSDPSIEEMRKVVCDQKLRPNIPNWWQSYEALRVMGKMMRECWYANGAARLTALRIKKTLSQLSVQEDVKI
Procedure: as §1, §2

[8] = target: T8, STK36 (Homo sapiens, UniProt Q9NRP7)
T8 construct: purchased Ambit Biosciences (KINOMEscan)
T8 sequence (Q9NRP7 1-1315): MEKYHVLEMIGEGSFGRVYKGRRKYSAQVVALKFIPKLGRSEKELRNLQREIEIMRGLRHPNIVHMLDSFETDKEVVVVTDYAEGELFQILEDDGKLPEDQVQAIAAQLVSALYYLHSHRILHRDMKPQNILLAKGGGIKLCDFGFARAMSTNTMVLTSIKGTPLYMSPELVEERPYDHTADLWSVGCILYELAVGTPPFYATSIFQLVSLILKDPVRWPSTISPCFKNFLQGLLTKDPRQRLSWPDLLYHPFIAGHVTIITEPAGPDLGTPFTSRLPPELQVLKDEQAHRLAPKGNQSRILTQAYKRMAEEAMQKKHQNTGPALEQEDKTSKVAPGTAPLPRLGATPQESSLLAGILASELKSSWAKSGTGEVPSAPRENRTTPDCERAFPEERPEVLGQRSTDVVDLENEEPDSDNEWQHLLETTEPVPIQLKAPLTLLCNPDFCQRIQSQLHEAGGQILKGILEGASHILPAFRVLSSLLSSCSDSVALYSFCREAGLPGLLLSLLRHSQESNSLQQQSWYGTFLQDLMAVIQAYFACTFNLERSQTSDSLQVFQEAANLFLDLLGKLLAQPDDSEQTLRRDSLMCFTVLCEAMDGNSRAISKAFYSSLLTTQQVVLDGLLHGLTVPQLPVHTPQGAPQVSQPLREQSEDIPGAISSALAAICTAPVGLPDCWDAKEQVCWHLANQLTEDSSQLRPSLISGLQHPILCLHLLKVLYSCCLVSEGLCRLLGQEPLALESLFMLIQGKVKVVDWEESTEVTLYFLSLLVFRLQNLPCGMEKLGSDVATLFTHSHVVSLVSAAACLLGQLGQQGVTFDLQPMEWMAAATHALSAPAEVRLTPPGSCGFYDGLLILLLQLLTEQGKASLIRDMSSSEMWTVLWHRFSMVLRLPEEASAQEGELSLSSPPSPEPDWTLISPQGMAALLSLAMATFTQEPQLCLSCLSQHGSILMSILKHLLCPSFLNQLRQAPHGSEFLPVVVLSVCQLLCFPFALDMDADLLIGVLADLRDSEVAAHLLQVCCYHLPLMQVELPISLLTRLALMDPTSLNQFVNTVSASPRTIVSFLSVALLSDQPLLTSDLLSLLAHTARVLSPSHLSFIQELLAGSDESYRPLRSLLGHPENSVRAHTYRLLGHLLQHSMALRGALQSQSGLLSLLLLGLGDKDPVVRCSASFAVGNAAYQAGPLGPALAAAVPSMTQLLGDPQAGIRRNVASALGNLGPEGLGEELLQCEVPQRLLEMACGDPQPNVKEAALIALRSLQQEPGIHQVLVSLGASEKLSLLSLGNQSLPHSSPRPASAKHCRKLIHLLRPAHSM
Procedure: as §1, §2

[9] = target: T9, BRAF (Homo sapiens, UniProt P15056)
T9 construct: purchased Ambit Biosciences (KINOMEscan)
T9 sequence (P15056 whole entry): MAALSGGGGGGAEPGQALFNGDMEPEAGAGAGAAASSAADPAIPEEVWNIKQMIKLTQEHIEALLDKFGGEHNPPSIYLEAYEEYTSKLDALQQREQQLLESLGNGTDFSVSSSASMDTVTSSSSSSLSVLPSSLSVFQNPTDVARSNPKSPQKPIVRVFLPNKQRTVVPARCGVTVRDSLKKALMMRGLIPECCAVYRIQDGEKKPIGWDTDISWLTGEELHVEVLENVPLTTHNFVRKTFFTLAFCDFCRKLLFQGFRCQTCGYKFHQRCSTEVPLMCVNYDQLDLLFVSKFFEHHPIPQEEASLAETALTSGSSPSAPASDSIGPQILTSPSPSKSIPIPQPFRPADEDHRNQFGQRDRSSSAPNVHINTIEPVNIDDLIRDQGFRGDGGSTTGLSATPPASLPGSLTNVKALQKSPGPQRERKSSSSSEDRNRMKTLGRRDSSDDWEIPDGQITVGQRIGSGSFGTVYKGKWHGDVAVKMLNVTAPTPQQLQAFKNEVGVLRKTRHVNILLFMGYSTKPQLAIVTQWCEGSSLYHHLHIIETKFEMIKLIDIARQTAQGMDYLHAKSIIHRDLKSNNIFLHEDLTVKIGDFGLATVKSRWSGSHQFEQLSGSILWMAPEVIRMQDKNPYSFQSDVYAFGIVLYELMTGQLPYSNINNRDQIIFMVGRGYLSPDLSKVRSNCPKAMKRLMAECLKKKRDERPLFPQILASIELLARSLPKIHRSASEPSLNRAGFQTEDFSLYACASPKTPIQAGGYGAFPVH
Procedure: as §1, §2

[10] = target: T10, ACVR1 (Homo sapiens, UniProt Q04771)
T10 construct: purchased Ambit Biosciences (KINOMEscan)
T10 sequence (Q04771 21-509): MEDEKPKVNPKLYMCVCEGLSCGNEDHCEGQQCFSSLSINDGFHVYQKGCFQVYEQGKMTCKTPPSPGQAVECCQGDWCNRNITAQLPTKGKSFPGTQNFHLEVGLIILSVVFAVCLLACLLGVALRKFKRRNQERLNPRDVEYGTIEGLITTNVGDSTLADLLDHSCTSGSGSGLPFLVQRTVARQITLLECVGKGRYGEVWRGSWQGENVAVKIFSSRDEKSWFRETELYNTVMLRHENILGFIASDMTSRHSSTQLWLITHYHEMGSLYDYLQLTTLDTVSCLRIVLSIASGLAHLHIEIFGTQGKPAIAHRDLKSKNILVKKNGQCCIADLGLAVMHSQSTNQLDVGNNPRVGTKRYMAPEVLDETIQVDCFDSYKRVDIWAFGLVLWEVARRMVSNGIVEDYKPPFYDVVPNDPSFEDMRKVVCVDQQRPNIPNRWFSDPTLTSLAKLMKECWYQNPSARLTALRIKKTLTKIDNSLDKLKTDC
Procedure: as §1, §2

T1 sequence (P10721 26-976 V559D): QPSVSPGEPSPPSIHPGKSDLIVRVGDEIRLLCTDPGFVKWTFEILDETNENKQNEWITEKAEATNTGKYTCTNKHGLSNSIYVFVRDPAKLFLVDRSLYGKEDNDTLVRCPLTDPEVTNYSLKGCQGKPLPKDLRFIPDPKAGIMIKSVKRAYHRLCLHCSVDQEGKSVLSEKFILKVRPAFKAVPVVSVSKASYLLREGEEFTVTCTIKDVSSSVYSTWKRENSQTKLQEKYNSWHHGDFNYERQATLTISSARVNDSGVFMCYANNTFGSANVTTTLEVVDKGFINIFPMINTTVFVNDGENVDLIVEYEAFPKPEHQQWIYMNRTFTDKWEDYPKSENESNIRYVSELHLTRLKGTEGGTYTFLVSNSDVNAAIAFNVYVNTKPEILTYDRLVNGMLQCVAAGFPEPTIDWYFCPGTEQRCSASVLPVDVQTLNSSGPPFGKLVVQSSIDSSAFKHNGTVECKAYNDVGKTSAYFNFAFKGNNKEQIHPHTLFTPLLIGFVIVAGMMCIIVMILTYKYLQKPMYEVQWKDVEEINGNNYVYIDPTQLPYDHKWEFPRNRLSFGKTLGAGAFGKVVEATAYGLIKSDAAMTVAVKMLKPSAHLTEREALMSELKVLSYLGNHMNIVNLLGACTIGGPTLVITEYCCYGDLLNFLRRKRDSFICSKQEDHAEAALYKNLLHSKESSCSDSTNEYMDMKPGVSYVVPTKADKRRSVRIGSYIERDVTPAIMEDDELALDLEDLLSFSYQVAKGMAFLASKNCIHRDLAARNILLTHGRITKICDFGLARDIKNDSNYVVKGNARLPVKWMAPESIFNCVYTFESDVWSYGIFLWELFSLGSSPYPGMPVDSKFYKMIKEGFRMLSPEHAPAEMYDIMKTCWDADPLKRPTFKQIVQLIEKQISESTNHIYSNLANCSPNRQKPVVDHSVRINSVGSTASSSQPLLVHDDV

Fc1ccc(-c2c(-c3ccncc3)[nH]c3nccnc23)cc1 [Compound 122]
inhibition at 10 µM ([1]; KIT(V559D), 10 µM, read-out: % Competition): 75% | % Competition [2]: 97% | inhibition at 10 µM ([3]; HPK1, 10 µM, read-out: % Competition): 67% | competition [4]: < 50% | % Competition [5]: 100% | inhibition at 10 µM ([6]; RAF1, 10 µM, read-out: % Competition): 81% | inhibition at 10 µM ([7]; ACVR1B, 10 µM, read-out: % Competition): 91% | inhibition at 10 µM ([8]; STK36, 10 µM, read-out: % Competition): 100% | inhibition at 10 µM ([9]; BRAF, 10 µM, read-out: % Competition): 97% | inhibition at 10 µM ([10]; ACVR1, 10 µM, read-out: % Competition): 92%

CC(O)CNc1cc(-c2[nH]c3cccnc3c2-c2ccc(F)cc2)ccn1 (stereo not drawn) [Compound 140]
inhibition at 10 µM ([1]; read-out: % Competition): < 50% | % Competition [2]: 87% | inhibition at 10 µM ([3]; read-out: % Competition): < 50% | competition [4]: < 50% | % Competition [5]: 100% | inhibition at 10 µM ([6]; read-out: % Competition): < 50% | inhibition at 10 µM ([7]; read-out: % Competition): < 50% | inhibition at 10 µM ([8]; read-out: % Competition, STK36, 10 µM): 99 to 100% | inhibition at 10 µM ([9]; read-out: % Competition): 76% | inhibition at 10 µM ([10]; read-out: % Competition): < 50%

Fc1ccc(-c2c(-c3ccncc3)[nH]c3nccnc23)cc1 [RO1155697-000-005]
inhibition at 10 µM ([1]; KIT(V559D), compound concentration 10 uM, read-out: Percent Competition): 75% | Percent Competition ([2]; compound concentration 10 uM): 97% | inhibition at 10 µM ([3]; HPK1, compound concentration 10 uM, read-out: Percent Competition): 67% | inhibition at 10 µM ([4]; CAMK2G, compound concentration 10 uM, read-out: Percent Competition): < 50% | Percent Competition ([5]; compound concentration 10 uM): 100% | inhibition at 10 µM ([6]; RAF1, compound concentration 10 uM, read-out: Percent Competition): 81% | inhibition at 10 µM ([7]; ACVR1B, compound concentration 10 uM, read-out: Percent Competition): 91% | inhibition at 10 µM ([8]; STK36, compound concentration 10 uM, read-out: Percent Competition): 100% | inhibition at 10 µM ([9]; BRAF, compound concentration 10 uM, read-out: Percent Competition): 97% | inhibition at 10 µM ([10]; ACVR1, compound concentration 10 uM, read-out: Percent Competition): 92%
